Laboratory results: patent US20190293657A1, “PEPTIDE, FLUORESCENT PROBE COMPRISING THE SAME, AND PREPARATION METHOD THEREOF” (Singulprobe Nanjing Biotechnology Co., Ltd, priority 2017, published 2019)

Tested on: lysosome (U2OS cells)
Test: Structural illumination microscopy (N-SIM) super-resolution imaging of lysosomes
Format: cell-based
Conditions: FIG. 8
Excerpt: Super-resolution imaging by structural illumination microscopy: super-resolution microscope N-SIM (Nikon, Japan) was employed. The maximum excitation wavelength of Alexa Fluor 647 was 650 nm and the maximum emission wavelength was 665 nm; the maximum excitation wavelength of LysoTracker Red was 577 nm and the maximum emission wavelength of LysoTracker Red was 590 nm; the maximum excitation wavelength of Atto 565 was 563 nm and the maximum emission wavelength of Atto 565 was 592 nm; the maximum excitation wavelength of Atto 488 was 501 nm and the maximum emission wavelength was 523 nm. A sample was photographed using a 2D-SIM mode, one SIM result was calculated from 9 original images (three angles, three phases), and the exposure time of each original image was 30 ms. Considering quick movement ability of a lysosome in living cells, single-color imaging interval time was set as 1 s so as to continuously photograph cells at above 300 frames. After the capturing was completed, the average time interval among various SIM images was about 1.15 s. […]
Based on a time-lapsed SIM imaging, take the center of the lysosome as a reference, the coordinates of lysosomes were recorded using ImageJ software, and trace charts of 101 lysosomes in four U2OS cells on the confocal surface were drawn using MATLAB (FIGS. 6A-6H). […]

Q: How did the “background in structural illumination super-resolution imaging” value turn out when `CN(C)CCNC(=O)CCc1ccc2n1[B-](F)(F)[N+]1=C(c3ccc[nH]3)C=CC1=C2` [LysoTracker Red] was run?
A: The value was “uneven background of LysoTracker Red was very obvious”.
